Measurements: patent publication US6117869A, “Compounds for and methods of inhibiting matrix metalloproteinases” (Warner-Lambert Company, priority 1999, dated 2000)

Legend:
MMP-9 = MMP-9 (Homo sapiens, UniProt P14780); assay: Thiopeptolide assay, MMP-9; assay type: biochemical; conditions: thiopeptolide substrate
Procedure: [The source words this procedure for another target and reports this target under the same test.] (§1) IC50 values were determined using a thiopeptolide substrate, Ac-Pro-Leu-Gly-thioester-Leu-Leu-Gly-OEt (Ye Q. Z., Johnson L. L., Hupe D. J., and Baragi V., "Purification and Characterization of the Human Stromelysin Catalytic Domain Expressed in Escherichia coli," Biochemistry,1992;31:11231-11235). MMP-1, MMP-7, and MMP-13 activity was assayed in a method similar to MMP-2 and MMP-3 (SCD and GCD). MMP-1 can be obtained from Washington University School of Medicine, St. Louis, Mo. MMP-7 can be obtained in accordance with the known procedure set forth by Ye Q. Z., Johnson L. L., and Baragi V., "Gene Syntheses and Expression in E. coli for PUMP, a Human Matrix Metalloproteinase," Biochem. and Biophys. Res. Comm., 1992;186:143-149. MMP13 can be obtained in accordance with the known procedure set forth by Freije J. M. P. et al., "Molecular Cloning and Expression of Collegenase-3, a Novel Human Matrix Metalloproteinase Produced by Breast Carcinomas," J. Bio. Chem., 1994;269:16766-16773.
(§2) Hydrolysis of the thiopeptolide substrate Ac-Pro-Leu-Gly-thioester-Leu-Leu-Gly-OEt (Bachem) is used as the primary screen to determine IC50 values for MMP inhibitors. A 100 μL reaction contains 1 mM 5,5'-dithiobis(2-nitrobenzoic acid) (DTNB), 100 μM substrate, 0.1% BRIJ® 35, PROTEIN GRADE®, Detergent, 10% solution, Sigma, St. Louis, Mo. [polyoxyethyleneglycol dodecyl ether; polyoxyethylene (23) lauryl ether], enzyme, and inhibitor in the appropriate reaction buffer. Activated full-length enzymes are assayed at 5 nM, Stromelysin Catalytic Domain (SCD) at 10 nM, and Gelatinase A Catalytic Domain (GaCD) at 1 nM. Inhibitors are screened from 100 μM to 1 nM. Full-length enzymes (MMP-1 and MMP-7) are assayed in 50 mM HEPES, 10 mM CaCl2, pH 7.0; SCD in 50 mM MES, 10 mM CaCl2, pH 6.0; and GaCD in 50 mM MOPS, 10 mM CaCl2, 10 μM ZnCl2, pH 7.0. The change in absorbance at 405 nm is monitored on a ThermoMax microplate reader at room temperature continuously for 20 minutes.

MMP-7 = molecular target: T1, MMP-7 (Homo sapiens, UniProt P09237); assay: Thiopeptolide assay, MMP-7; assay type: biochemical; conditions: full-length enzyme, 5 nM; pH 7.0; 100 μM thiopeptolide substrate
T1 construct: made in house; host or cells: E. coli
T1 sequence (P09237 95-267): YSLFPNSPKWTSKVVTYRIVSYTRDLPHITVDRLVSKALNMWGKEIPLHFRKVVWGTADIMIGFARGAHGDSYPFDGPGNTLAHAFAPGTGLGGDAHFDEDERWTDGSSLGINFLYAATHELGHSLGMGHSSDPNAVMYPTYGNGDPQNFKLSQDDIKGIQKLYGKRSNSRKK
Procedure: as §1, §2

MMP-2CD = assay: Thiopeptolide assay, gelatinase A catalytic domain (GCD/GaCD); assay type: biochemical; conditions: 1 nM, pH 7.0, 100 μM thiopeptolide substrate
Procedure: as §1, §2

MMP-3CD = molecular target: T2, MMP-3CD (Homo sapiens, UniProt P08254); assay: Thiopeptolide assay, stromelysin-1 catalytic domain (SCD); assay type: biochemical; conditions: 10 nM, pH 6.0, 100 μM thiopeptolide substrate
T2 construct: Stromelysin Catalytic Domain (SCD) at 10 nM; made in house; host or cells: Escherichia coli
Procedure: as §1, §2

MMP-13CD = assay: Thiopeptolide assay, MMP-13CD; assay type: biochemical, Human; conditions: catalytic domain; thiopeptolide substrate
Procedure: as §1, §2

MMP-1 = molecular target: T3, MMP-1 (Homo sapiens, UniProt P03956); assay: Thiopeptolide assay, MMP-1; assay type: biochemical; conditions: full-length enzyme, 5 nM; pH 7.0; 100 μM thiopeptolide substrate
T3 construct: purchased Washington University School of Medicine, St. Louis, Mo
T3 sequence (P03956 100-469): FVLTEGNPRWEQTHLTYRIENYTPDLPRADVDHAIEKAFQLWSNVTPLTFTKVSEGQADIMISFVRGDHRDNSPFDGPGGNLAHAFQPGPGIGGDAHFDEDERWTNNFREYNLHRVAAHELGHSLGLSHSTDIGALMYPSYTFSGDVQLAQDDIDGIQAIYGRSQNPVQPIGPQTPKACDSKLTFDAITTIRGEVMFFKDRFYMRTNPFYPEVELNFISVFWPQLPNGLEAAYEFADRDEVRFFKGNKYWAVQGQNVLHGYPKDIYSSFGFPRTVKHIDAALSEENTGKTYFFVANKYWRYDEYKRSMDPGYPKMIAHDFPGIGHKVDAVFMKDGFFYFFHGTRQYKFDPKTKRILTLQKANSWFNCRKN
Procedure: as §1, §2

MMP-14CD = assay: Thiopeptolide assay, MMP-14CD; assay type: biochemical; conditions: catalytic domain; thiopeptolide substrate
Procedure: as §1, §2

[1] = tested on: human ovarian carcinoma xenografts; conditions: mice bearing human ovarian carcinoma xenografts; cited from earlier work
bovine nasal cartilage = conditions: cited from earlier work
pig articular cartilage = conditions: cited from earlier work

Chain of MMP-9 (P14780 94-707): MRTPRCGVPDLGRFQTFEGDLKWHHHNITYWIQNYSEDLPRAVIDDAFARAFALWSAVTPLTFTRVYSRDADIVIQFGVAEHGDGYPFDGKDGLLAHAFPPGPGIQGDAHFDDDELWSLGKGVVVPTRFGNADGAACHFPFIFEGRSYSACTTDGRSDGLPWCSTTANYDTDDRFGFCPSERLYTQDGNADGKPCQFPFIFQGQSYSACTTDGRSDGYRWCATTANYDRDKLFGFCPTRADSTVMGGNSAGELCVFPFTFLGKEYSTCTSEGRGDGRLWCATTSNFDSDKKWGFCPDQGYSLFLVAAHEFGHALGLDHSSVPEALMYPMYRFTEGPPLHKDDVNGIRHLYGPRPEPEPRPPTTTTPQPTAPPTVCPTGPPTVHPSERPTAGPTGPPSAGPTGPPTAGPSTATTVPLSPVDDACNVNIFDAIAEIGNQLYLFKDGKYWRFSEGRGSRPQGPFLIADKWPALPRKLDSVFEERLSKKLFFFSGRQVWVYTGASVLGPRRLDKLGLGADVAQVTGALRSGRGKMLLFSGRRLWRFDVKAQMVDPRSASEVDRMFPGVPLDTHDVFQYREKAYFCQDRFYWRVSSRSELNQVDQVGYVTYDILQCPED
T2 sequence (P08254 100-272 limits assumed): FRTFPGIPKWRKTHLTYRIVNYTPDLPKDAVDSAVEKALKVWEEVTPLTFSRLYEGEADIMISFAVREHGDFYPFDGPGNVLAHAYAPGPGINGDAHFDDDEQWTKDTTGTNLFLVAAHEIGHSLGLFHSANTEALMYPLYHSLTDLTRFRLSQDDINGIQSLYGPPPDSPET

Molecule | IC50 (MMP-9) [µM] | IC50 (MMP-7) [µM] | IC50 (MMP-2CD) [µM] | IC50 (MMP-3CD) [µM] | IC50 (MMP-13CD) [µM] | IC50 (MMP-1) [µM] | IC50 (MMP-14CD) [µM] | survival [1] | tumor burden [1] | formation of collagen and proteoglycan fragments (bovine nasal cartilage) | formation of collagen and proteoglycan fragments (pig articular cartilage)
NC(=O)C[C@H](NS(=O)(=O)c1ccc2c(c1)Sc1ccccc1O2)C(=O)O [Example 16, (S)-2-(Phenoxathiine-2-sulfonylamino)-succinamic acid] | 53 | 14 | 0.113 | 0.41 | 4.4 | > 100 | 1.55 | – | – | – | –
O=C(O)[C@H](CO)NS(=O)(=O)c1ccc2c(c1)Sc1ccccc1O2 [Example 5, (S)-3-Hydroxy-2-(phenoxathiine-2-sulfonylamino)-propionic acid] | 82 | 23 | 0.069 | 0.18 | 1.8 | > 100 | 0.39 | – | – | – | –
CNC(=O)[C@H](Cc1ccccc1)NC(=O)[C@H](CC(C)C)[C@H](CSc1cccs1)C(=O)NO [BB-94] | – | – | – | – | – | – | – | prolonged the survival | decreased the tumor burden | – | –
O=C(O)[C@H](Cc1ccc(O)cc1)NS(=O)(=O)c1ccc2c(c1)Sc1ccccc1O2 [Example 14, (S)-3-(4-Hydroxy-phenyl)-2-(phenoxathiine-2-sulfonylamino)-propionic acid] | 18 | 17 | 0.09 | 0.12 | 2.3 | 87 | 0.2 | – | – | – | –
O=C(O)[C@H](Cc1c[nH]c2ccccc12)NS(=O)(=O)c1ccc2c(c1)Sc1ccccc1O2 [Example 15, (S)-3-(1H-Indol-3-yl)-2-(phenoxathiine-2-sulfonylamino)-propionic acid] | > 100 | 54 | 0.91 | 0.86 | 16 | > 100 | 3.8 | – | – | – | –
O=C(O)[C@H](CCc1ccccc1)NS(=O)(=O)c1ccc2c(c1)Cc1ccccc1O2 [Example 3, (S)-4-Phenyl-2-(9H-xanthene-2-sulfonylamino)-butyric acid] | > 100 | 3.2 | 0.2 | 0.068 | 0.5 | > 100 | 1 | – | – | – | –
TIMP-1: tissue inhibitors of metalloproteinases | – | – | – | – | – | – | – | – | – | prevented the formation of collagen fragments, but not proteoglycan fragments | prevented the formation of collagen fragments, but not proteoglycan fragments
O=C(O)[C@H](CSC(c1ccccc1)(c1ccccc1)c1ccccc1)NS(=O)(=O)c1ccc2c(c1)Sc1ccccc1O2 [Example 13, (R)-2-(Phenoxathiine-2-sulfonylamino)-3-tritylsulfanyl-propionic acid] | > 100 | 66 | 3.2 | 4.65 | 36 | > 100 | 7.4 | – | – | – | –
O=C(O)[C@H](CCc1ccccc1)NS(=O)(=O)c1ccc2c(c1)Sc1ccccc1O2 [Example 2, (S)-2-(Phenoxathiine-2-sulfonylamino)-4-phenyl-butyric acid] | 16.6 | 7.9 | 0.033 | 0.054 | 1.39 | > 100 | 0.092 | – | – | – | –
CC(C)[C@@H](NS(=O)(=O)c1ccc2c(c1)Sc1ccccc1O2)C(=O)O [Example 8, (R)-3-Methyl-2-(phenoxathiine-2-sulfonylamino)-butyric acid] | 12 | 19 | 0.027 | 0.0155 | 0.27 | 6.25 | 0.155 | – | – | – | –
CC(C)[C@H](NS(=O)(=O)c1ccc2c(c1)Sc1ccccc1O2)C(=O)O [Example 4, (S)-3-Methyl-2-(phenoxathiine-2-sulfonylamino)-butyric acid] | 19 | 6.7 | – | 0.053 | – | 39 | – | – | – | – | –
CC(C)[C@H](NS(=O)(=O)c1ccc2c(c1)Sc1ccccc1S2)C(=O)O [Example 1, (S)-3-Methyl-2-((thianthren-2-ylsulfonyl)amino)butanoic acid] | > 100 | 27.6 | 15.4 | 6.9 | > 100 | > 100 | 40 | – | – | – | –
CC(C)C[C@H](NS(=O)(=O)c1ccc2c(c1)Sc1ccccc1O2)C(=O)O [Example 11, (S)-4-Methyl-2-(phenoxathiine-2-sulfonylamino)-pentanoic acid] | 18 | 8.7 | 0.0235 | 0.0625 | 3.9 | 55 | 0.3 | – | – | – | –
O=C(O)[C@H](CCc1ccccc1)NS(=O)(=O)c1ccc2c(c1)S(=O)(=O)c1ccccc1O2 [Example 7, (S)-2-(10,10-Dioxo-10H-10λ^6-phenoxathiine-2-sulfonylamino)-4-phenyl-butyric acid] | > 100 | 24 | 2.3 | 3.75 | 73 | > 100 | 3.7 | – | – | – | –
C[C@H](NS(=O)(=O)c1ccc2c(c1)Sc1ccccc1O2)C(=O)O [Example 9, (S)-2-(Phenoxathiine-2-sulfonylamino)-propionic acid] | 23 | 19 | 0.033 | 0.295 | 5.25 | 76 | 0.19 | – | – | – | –
O=C(O)[C@@H](NS(=O)(=O)c1ccc2c(c1)Sc1ccccc1O2)c1ccccc1 [Example 17, (S)-(Phenoxathiine-2-sulfonylamino)-phenyl-acetic acid] | > 100 | > 100 | 0.15 | 2 | 12 | > 100 | 0.94 | – | – | – | –
O=C(O)[C@H](CO)NS(=O)(=O)c1ccc2c(c1)Cc1ccccc1O2 [Example 6, (S)-3-Hydroxy-2-(9H-xanthene-2-sulfonylamino)-propionic acid] | > 100 | 34 | 0.65 | 0.44 | 4.3 | > 100 | 4.1 | – | – | – | –
O=C(O)[C@H](Cc1ccccc1)NS(=O)(=O)c1ccc2c(c1)Sc1ccccc1O2 [Example 12, (S)-2-(Phenoxathiine-2-sulfonylamino)-3-phenyl-propionic acid] | > 100 | 91 | 0.17 | 0.35 | 8.7 | > 100 | 0.5 | – | – | – | –
C[S+]([O-])CC[C@H](NS(=O)(=O)c1ccc2c(c1)Sc1ccccc1O2)C(=O)O (stereo partly drawn) [Example 10, (S)-4-Methanesulfinyl-2-(phenoxathiine-2-sulfonylamino)-butyric acid] | 38 | 9.15 | 0.0585 | 0.165 | 4.1 | 72 | 0.285 | – | – | – | –
